Laboratory results reported in patent US4148907A, “Stereoisomers of 1-(1'benzyl-2'pyrryl)-2-di-sec.-butylaminoethanol and pharmaceutical compositions comprising same” (Etablissement Viridis, priority 1976, dated 1979).

Experiments:
[1] = Analgesic activity, comparison in words (hot plate and tail flick data); assay type: in vivo; conditions: compared with VIMINOLO
Experimental: (§1) [α]436^20 (in methanol c= 2%): -48° C.±3° C. The analgesic activity (ED50) of isomers A and B has been determined via the hot plate test on mice (N/.B Eddy et Coll. J. Pharmacol. 98, 121, 1950) and via the "tail flick" test on rats (D'Amour and Smith; J. Pharmacol. 1941, 72, 74). The resulting values are set forth in the following Table and compared with the values given under identical conditions for VIMINOLO and the "R2 " Compound referred to hereinabove (Pharmacological Research Communications 8, 111 (1976)).

mice [2] = conditions: comparison values given under identical conditions (Pharmacological Research Communications 8, 111 (1976)); cited from earlier work
[3] = compared with other isomers, racemic compound or the disclosed class; cited from earlier work
[4] = Acute toxicity (LD50), method of Litchfield and Wilcoxson; conditions: in vivo, ip
Excerpt: The acute toxicity values (LD50) have been determined by the method of Litchfield and Wilcoxson (J. Pharmacol. 1949, 96, 99) both for the new compounds of this invention and for VIMINOLO and the "R2 " Compound.

rats [5] = conditions: comparison values given under identical conditions (Pharmacological Research Communications 8, 111 (1976)); cited from earlier work
[6] = Therapeutic index (LD50/ED50 tail flick); assay type: in vivo; conditions: ratio of LD50/ED50, ED50 from the tail flick test
Excerpt: The superiority of new Compounds A and B is also evident from the therapeutic indexes which have been calculated as a ratio of LD50 /ED50' taking as the ED50 value that which is obtained by the tail flick test.

rats [7] = experiment: "tail flick" test on rats (analgesic activity, ED50); assay type: in vivo; conditions: Rattus norvegicus, sc
Experimental: as §1

mice [8] = experiment: Hot plate test on mice (analgesic activity, ED50); assay type: in vivo; conditions: Mus musculus, sc
Experimental: as §1

CCC(C)N(CC(O)c1cccn1Cc1ccccc1Cl)C(C)CC (single isomer, unassigned) ["R2 " Compound]
analgesic activity relative to VIMINOLO [1]: surprisingly more active than VIMINOLO
ED50 hot plate s.c (mice [2]): 1.15 mg/kg
analgesic activity (prior patents) [3]: much more active than the other isomers and also, more active than the corresponding racemic compound "VIMINOLO"
LD50 [4]: 230 mg/kg
ED50 Tail Flick s.c. (rats [5]): 0.71 mg/kg
T.I. (therapeutic index) [6]: 324

CC[C@@H](C)N(CC(O)c1cccn1Cc1ccccc1F)[C@H](C)CC (single isomer, unassigned) [Isomer A]
ED50 (rats [7]): 0.44 mg/kg
LD50 [4]: 384 mg/kg
T.I. (therapeutic index) [6]: 872
ED50 (mice [8]): 0.65 mg/kg

CC[C@@H](C)N(CC(O)c1cccn1Cc1ccccc1C(F)(F)F)[C@H](C)CC (single isomer, unassigned) [Isomer B]
ED50 (rats [7]): 0.38 mg/kg
LD50 [4]: 358 mg/kg
T.I. (therapeutic index) [6]: 942
ED50 (mice [8]): 0.6 mg/kg

CCC(C)N(CC(O)c1cccn1Cc1ccccc1Cl)C(C)CC (stereo not drawn) [VIMINOLO, 1-[1'(o-chlorobenzyl)-2'-pyrryl]-2-di-sec.-butylaminoethanol]
analgesic activity (prior patents) [3]: most active compound within the disclosed class of aminoethanols
LD50 [4]: 167 mg/kg
ED50 Tail Flick s.c. (rats [5]): 12.5 mg/kg
T.I. (therapeutic index) [6]: 13.36
